Test results taken from patent publication US7309718B2, “Dibenzocycloheptene compound” (UBE Industries, Ltd., priority 2001, dated 2007).
Like-named read-outs stand apart in the source and are kept apart here.

Key:
[1] = tested on: Leukotriene D4 (LTD4) induced respiratory constriction; experiment: Leukotriene D4 induced respiratory constriction test; assay type: in vivo, guinea pig; conditions: Cavia porcellus, po, read-out: LTD4 inhibitory activity
Protocol: Leukotriene D4 Induced Respiratory Constriction Test
Respiratory constriction was measured by modifying the method of Konzett and Rossler (Arch. Exp. Pathol. Pharmakol., 195, pp. 71-74 (1940)). Hartley male guinea pigs (400 to 500 g body weight, Japan SLC Inc.) were anesthetized with pentobarbital (50 mg/kg, s.c.), and a cannula was inserted into the trachea to carry out artificial ventilation with an artificial ventilator (manufactured by Harvard Apparatus, Model 683). An inner pressure of the respiratory tract was measured by a differential pressure transducer (Nihon Kohden, TP-603T) connected to the respiratory cannula and it is used as an index of respiratory constriction.
LTD4 (0.03, 0.06, 0.13, 0.25, 0.5, 1 and 2 μg/kg, Simga-Aldrich) was intravenously administered from a cannula inserted into the right jugular vein from a low dose with an interval of 5 minutes to cause a respiratory constricttion reaction and an increased amount of a respiratory inner pressure was measured. Test compound was suspended in 0.5% sodium carboxymethyl cellulose aqueous solution or dissolved in 30% propylene glycol aqueous solution, and orally administered 24 hours before administration of LTD4. Animals were fasted for 24 hours before administration of the Test compound. […] LTD4 inhibitory activity=(Dose of Compound administered)/{(ED50 of group to which Compound was added)/(ED50 of control group)-1}

[2] = target: T1, Leukotriene D4 (LTD4) receptor (Cavia porcellus, UniProt Q2NNR5); experiment: Leukotriene D4 receptor binding test ([3H]LTD4, lung cell membrane fraction); conditions: binding inhibition constant vs 0.2 nM [3H]LTD4, guinea pig lung cell membrane fraction, 25° C. 30 minutes
T1 sequence (Q2NNR5 1-340): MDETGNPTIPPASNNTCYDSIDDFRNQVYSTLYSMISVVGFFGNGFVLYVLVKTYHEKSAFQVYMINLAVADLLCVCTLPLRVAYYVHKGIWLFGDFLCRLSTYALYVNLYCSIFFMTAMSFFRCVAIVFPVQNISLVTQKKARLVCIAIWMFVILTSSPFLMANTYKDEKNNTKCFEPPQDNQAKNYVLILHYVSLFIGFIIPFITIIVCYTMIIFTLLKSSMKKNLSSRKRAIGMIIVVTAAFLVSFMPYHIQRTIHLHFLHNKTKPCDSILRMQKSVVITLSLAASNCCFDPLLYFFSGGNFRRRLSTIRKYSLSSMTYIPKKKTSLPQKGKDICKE
Protocol: Leukotriene D4 Receptor Binding Test
<Preparation of Receptor Sample>
As a receptor sample, a lung cell membrane fraction from guinea pigs was used. […] Lungs of Hartley male guinea pigs (400 to 500 g body weight, Japan SLC Inc.) were isolated, and perfused with a physiological saline, and then, adding 10 mM of PIPES, 10 mM of MgCl2 and 10 mM of CaCl2 buffer (pH 7.5) to the lung tissue and the mixture was homogenized. This homogenate was centrifuged at 70,000×g for 10 minutes to obtain a membrane fraction.
<Leukotriene D4 Receptor Binding Test>
To 0.42 mg of the receptor sample were added 10 mM of PIPES, 10 mM of MgCl2 and 10 mM of CaCl2 buffer (pH 7.5) to make the total amount of 480 μl, and 10 μl of [^3H] LTD4 (NEN Life Science Products Inc.) and 10 μl of a test compound in dimethylsulfoxide were added to the mixture, and the resulting mixture was incubated at 25° C. for 30 minutes. The mixtures thus incubated were filtered through a glass fiber filter (Whatman International Ltd., GF/C) using cell harvester (Biomedical Research & Development Laboratories, Inc., M-30R). The filter paper was washed with 10 mM of Tris and 100 mM of NaCl buffer (pH 7.5), and 5 ml of a liquid scintillator (nacalai tesque inc., clearsol I) was added thereto, and radioactivity was measured by a liquid scintillation analyzer (Packard Instrument Co., 2000CA). When a dissociation constant (Kd) of LTD4 was to be obtained, [^3H] LTD4 with 0.03 to 0.5 nM was used, and 1 μM of non-radioactive LTD4 was added. When a binding inhibition constant (Ki) of the Test compound is to be measured, [^3H] LTD4 with 0.2 nM was used.

[3] = p.o. 24 h before LTD4 i.v., dose of compound shifting the control LTD4 dose-reaction curve two-times to higher dose, anesthetized guinea pigs

| Compound | Ki [2] [nM] | ED (2-fold shift of LTD4 dose-response) ([1]; 24 h) [µg/kg] | other results |
| --- | --- | --- | --- |
| C[C@H](CSC1c2ccccc2C=Cc2ccc(/C=C/c3ccc4cc(F)c(F)cc4n3)cc21)C(=O)[O-].[Na+] (stereo partly shown) |  |  | melting point: 240 to 249 °C |
| O=C(O)CCSC1c2ccccc2COc2ccc(OCc3ccc4cc(F)c(Cl)cc4n3)cc21 (stereo not shown) [Compound A, 3-[2-(7-chloro-6-fluoroquinolin-2-yl)methoxy-6,11-dihydrobenz[b,e]oxepin-11-yl]thiopropionic acid, reference compound] |  |  | ED (2-fold shift of LTD4 dose-response) [1, 3]: 25.5 µg/kg |
| O=C([O-])COC1c2ccccc2C=Cc2ccc(/C=C/c3ccc4cc(F)c(F)cc4n3)cc21.[Na+] (stereo not shown) [Example Compound 3, Sodium [3-[(E)-2-(6,7-difluoroquinolin-2-yl)ethenyl]-5H-dibenzo[a,d]cyclohepten-5-yl]oxyacetate] | 0.1 |  | melting point: 213 to 227 °C; ED (2-fold shift of LTD4 dose-response) [1, 3]: 4.71 µg/kg |
| O=C([O-])CCSC1c2ccccc2C=Cc2ccc(/C=C/c3ccc4cc(F)c(F)cc4n3)cc21.[Na+] (stereo not shown) [Example Compound 4, Sodium 3-{[3-[(E)-2-(6,7-difluoroquinolin-2-yl)ethenyl]-5H-dibenzo[a,d]cyclohepten-5-yl]thio}propionate] | 0.2 | 1.91 | melting point: 213 to 216 °C |
| O=C([O-])CCSC1c2ccccc2C=Cc2ccc(/C=C/c3ccc4cc(F)c(Cl)cc4n3)cc21.[Na+] (stereo not shown) [Example Compound 7, Sodium 3-{[3-[(E)-2-(7-chloro-6-fluoroquinolin-2-yl)ethenyl]-5H-dibenzo[a,d]cyclohepten-5-yl]thio}propionate] | 0.2 | 0.85 | melting point: 228 to 238 °C |
| O=C([O-])CCSC1c2ccccc2C=Cc2ccc(/C=C/c3ccc4ccc(Cl)cc4n3)cc21.[Na+] (stereo not shown) [Example Compound 8, Sodium 3-{[3-[(E)-2-(7-chloroquinolin-2-yl)ethenyl]-5H-dibenzo[a,d]cyclohepten-5-yl]thio}propionate] |  | 5.3 | melting point: 193 to 203 °C |
| O=C(O)CCSC1c2ccccc2C=Cc2ccc(/C=C/c3ccc4c(n3)CCCC4)cc21 (stereo not shown) [Example Compound 9, Sodium 3-{[3-[(E)-2-(5,6,7,8-tetrahydroquinolin-2-yl)ethenyl]-5H-dibenzo[a,d]cyclohepten-5-yl]thio}propionate] | 0.158 |  |  |
| O=C([O-])CC1CC1CSC1c2ccccc2C=Cc2ccc(/C=C/c3ccc4cc(F)c(Cl)cc4n3)cc21.[Na+] (stereo not shown) [Example Compound 16, Sodium 3-{[3-[(E)-2-(7-chloro-6-fluoroquinolin-2-yl)ethenyl]-5H-dibenzo[a,d]cyclohepten-5-yl]thiomethyl}-cyclopropaneacetate] |  | 0.79 |  |
| O=C([O-])CCSC1c2cc(/C=C/c3ccc4cc(F)c(Cl)cc4n3)ccc2C=Cc2c(F)cccc21.[Na+] (stereo not shown) [Example Compound 18, Sodium 3-{[3-[(E)-2-(7-chloro-6-fluoroquinolin-2-yl)ethenyl]-9-fluoro-5H-dibenzo[a,d]cyclohepten-5-yl]thio}-propionate] |  | 1.12 |  |
| O=C([O-])COC1c2cc(/C=C/c3ccc4cc(F)c(Cl)cc4n3)ccc2C=Cc2c(Cl)cccc21.[Na+] (stereo not shown) [Example Compound 19, Sodium [3-[(E)-2-(7-chloro-6-fluoroquinolin-2-yl)ethenyl]-9-chloro-5H-dibenzo[a,d]cyclohepten-5-yl]oxy-acetate] |  |  | ED (2-fold shift of LTD4 dose-response) [1, 3]: 2.43 µg/kg |
| O=C([O-])CCSC1c2cc(/C=C/c3ccc4cc(F)c(Cl)cc4n3)ccc2C=Cc2c(Cl)cccc21.[Na+] (stereo not shown) [Example Compound 20, Sodium 3-{[3-[(E)-2-(7-chloro-6-fluoroquinolin-2-yl)ethenyl]-9-chloro-5H-dibenzo[a,d]cyclohepten-5-yl]thio}-propionate] |  | 0.7 |  |
| O=C([O-])CCSC1c2cc(/C=C/c3ccc4cc(F)c(Cl)cc4n3)ccc2C=Cc2c1cccc2C(F)(F)F.[Na+] (stereo not shown) [Example Compound 28, Sodium 3-{[3-[(E)-2-(7-chloro-6-fluoroquinolin-2-yl)ethenyl]-9-trifluoromethyl-5H-dibenzo[a,d]cyclohepten-5-yl]thio}propionate] |  | 1.7 |  |
| Sodium [3-[(E)-2-(7-chloroquinolin-2-yl)ethenyl]-5H-dibenzo[a,d]cyclohepten-5-yl]thioacetate [Example Compound 30] |  |  | pKi [2]: 9.7 |

The next lines start with results.

| Ki [2] [nM] | Compound | ED (2-fold shift of LTD4 dose-response) ([1]; 24 h) [µg/kg] | other results |
| --- | --- | --- | --- |
| 0.1 | C[C@H](COC1c2ccccc2C=Cc2ccc(/C=C/c3ccc4cc(F)c(F)cc4n3)cc21)C(=O)[O-].[Na+] (stereo partly drawn) [Example Compound 10, Sodium 3-{[3-[(E)-2-(6,7-difluoroquinolin-2-yl)ethenyl]-5H-dibenzo[a,d]cyclohepten-5-yl]oxy}-2-(R)-methyl-propionate] |  | ED (2-fold shift of LTD4 dose-response) [1, 3]: 9.93 µg/kg |
| 0.126 | O=C(O)COC1c2ccccc2C=Cc2ccc(/C=C/c3ccc4cc(F)c(Cl)cc4n3)cc21 (stereo not shown) [Example Compound 11, Sodium [3-[(E)-2-(7-chloro-6-fluoroquinolin-2-yl)ethenyl]-5H-dibenzo[a,d]cyclohepten-5-yl]oxyacetate] |  |  |
| 0.2 | O=C(O)CCOC1c2ccccc2C=Cc2ccc(/C=C/c3ccc4cc(F)c(Cl)cc4n3)cc21 (stereo not shown) [Example Compound 12, Sodium 3-{[3-[(E)-2-(7-chloro-6-fluoroquinolin-2-yl)ethenyl]-5H-dibenzo[a,d]cyclohepten-5-yl]oxy}propionate] |  |  |
| 0.126 | C[C@H](COC1c2ccccc2C=Cc2ccc(/C=C/c3ccc4cc(F)c(Cl)cc4n3)cc21)C(=O)O (stereo partly drawn) [Example Compound 13, Sodium 3-{[3-[(E)-2-(7-chloro-6-fluoroquinolin-2-yl)ethenyl]-5H-dibenzo[a,d]cyclohepten-5-yl]oxy}-2-(R)-methylpropionate] |  |  |
| 0.158 | O=C(O)COC1c2cc(/C=C/c3ccc4cc(F)c(Cl)cc4n3)ccc2C=Cc2c(F)cccc21 (stereo not shown) [Example Compound 17, Sodium [3-[(E)-2-(7-chloro-6-fluoroquinolin-2-yl)ethenyl]-9-fluoro-5H-dibenzo[a,d]cyclohepten-5-yl]oxy-acetate] |  |  |
| 0.251 | O=C(O)COC1c2ccccc2C=Cc2ccc(/C=C/c3ccc4ccc(Cl)cc4n3)cc21 (stereo not shown) [Example Compound 29, Sodium [3-[(E)-2-(7-chloroquinolin-2-yl)ethenyl]-5H-dibenzo[a,d]cyclohepten-5-yl]oxyacetate] |  |  |
| 0.2 | O=C(O)CCSC1c2cc(/C=C/c3ccc4c(n3)CCCC4)ccc2C=Cc2c1cccc2C(F)(F)F (stereo not shown) [Example Compound 31, Sodium 3-{[3-[(E)-2-(5,6,7,8-tetrahydroquinolin-2-yl)ethenyl]-9-trifluoromethyl-5H-dibenzo[a,d]cyclohepten-5-yl]thio}propionate] |  |  |
